Source: paper PMC8373216, “Development and Preclinical Evaluation of New Inhaled Lipoglycopeptides for the Treatment of Persistent Pulmonary Methicillin-Resistant Staphylococcus aureus Infections” (Antimicrobial Agents and Chemotherapy, 2021)
Read-outs that look alike come from different tables or passages of the source.

Experiments:
Protease from Papain = target: T1, Protease from Papain (Carica papaya, UniProt P00784); assay: Enzyme hydrolysis; type: in vitro ADME; conditions: Papain 5 U/mL
T1 construct: purchased Sigma Aldrich P4762; host or cells: papaya latex
T1 sequence (P00784 134-345): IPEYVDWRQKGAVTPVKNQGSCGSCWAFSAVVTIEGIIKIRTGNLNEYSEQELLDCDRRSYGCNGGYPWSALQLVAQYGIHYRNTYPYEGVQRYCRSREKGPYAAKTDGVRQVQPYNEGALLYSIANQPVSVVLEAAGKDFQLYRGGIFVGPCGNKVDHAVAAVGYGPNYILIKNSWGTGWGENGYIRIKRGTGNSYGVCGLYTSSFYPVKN
Description: (§1) 40 to the primary metabolite.
(§2) 41 percent degradation is defined as follows:
(§3) [LLLLPPLL ] + [MMPPPPDDMM DDMMDDPPPP ]
(§4) 45 Enzymes studied include :
(§5) 108 Table S1: Enzyme hydrolysis of RV62 and RV94 was measured as a function of time in PBS (pH 8) at 37
(§6) 109 °C. Control samples in the absence of enzyme were included as […]. Samples were analyzed
(§7) 110 by HPLC detecting the parent RV derivative (RV62 or RV94).
(§8) RV Percent RV derivative remaining in HPLC chromatograph, % […]

[1] = target: T2, Protease from Bacillus Lichenformis (Bacillus licheniformis, UniProt P00780); assay: Enzyme hydrolysis; type: in vitro ADME; conditions: Bacillus Lichenformis protease 5 U/mL
T2 construct: purchased Sigma Aldrich P5380; host or cells: Bacillus licheniformis
T2 sequence (P00780 106-379): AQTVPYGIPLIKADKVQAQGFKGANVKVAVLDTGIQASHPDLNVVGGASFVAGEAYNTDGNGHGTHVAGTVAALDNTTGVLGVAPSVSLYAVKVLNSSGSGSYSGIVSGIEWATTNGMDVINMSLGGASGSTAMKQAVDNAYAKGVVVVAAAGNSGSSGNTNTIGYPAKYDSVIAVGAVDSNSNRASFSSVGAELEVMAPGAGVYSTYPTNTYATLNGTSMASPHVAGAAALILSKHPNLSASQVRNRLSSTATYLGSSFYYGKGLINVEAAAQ
Description: as §1, §2, §3, §4, §5, §6, §7, §8

THP-1 cells = assay: In vitro cellular accumulation; type: cell-based; conditions: 24 h, 10 to 75 μg/ml
Description: THP-1 cells (TIB-202; ATCC, Manassas, VA; 1 × 10^6 cells/well) were differentiated into macrophages by incubating in 10% fetal bovine serum (FBS; HyClone, Marlborough, MA) supplemented RPMI 1640 medium (HyClone) with 50 ng/ml of phorbol 12-myristate 13-acetate (PMA; Sigma-Aldrich, St. Louis, MO) for 24 h. After a 24 h incubation in fresh medium, cells were treated with RV lipoglycopeptides or comparator drugs at target concentrations in the range of 10 to 75 μg/ml and incubated at 37°C for 24 h. For sample collection, mixtures of cells and medium were transferred into a 1.5-ml microcentrifuge tube followed by centrifugation at 330 × g for 8 min at 4°C. The supernatant was collected to measure the extracellular portion. After washing three times using 1 ml of tris-buffered saline (TBS, 1× solution, pH 7.4, Fisher BioReagents, Waltham, MA), the cell pellet was resuspended in TBS to measure the cellular drug concentration. To confirm mass balance, drug concentrations were also measured from the supernatant and an organic solvent mixture (30% acetonitrile in water) that was used to extract residual drug from the empty wells after the cell mixture was removed. […] Cellular accumulation was expressed as μg of drug per the mass of cell protein measured using a Pierce BCA protein assay kit (Thermo Scientific, Waltham, MA).

[2] = type: physicochemical; conditions: pH 8
Description: as §1, §2, §3, §4, §5, §6, §7, §8

In the case of `CCCCCCCCCCNC(=O)CNC1(C)CC(OC2C(Oc3c4cc5cc3Oc3ccc(cc3Cl)C(O)C3NC(=O)C(NC(=O)C5NC(=O)C(CC(N)=O)NC(=O)C(NC(=O)C(CC(C)C)NC)C(O)c5ccc(c(Cl)c5)O4)c4ccc(O)c(c4)-c4c(O)cc(O)cc4C(C(=O)O)NC3=O)OC(CO)C(O)C2O)OC(C)C1O` (centres unmarked) [RV94], the “Percent RV derivative remaining in HPLC chromatograph” value (“Percent RV derivative remaining” below) (Protease from Papain; 1 h) is reported as 99.39%, the “Percent RV derivative remaining” value (Protease from Papain; 24 h) is reported as 98.31% and the “Percent RV derivative remaining” value (Protease from Papain; PBS pH 8, 37 °C, 0 h) is reported as 99.46%. For the same molecule, the “Percent RV derivative remaining” value ([1]; 1 h) was 99.47%, the “Percent RV derivative remaining” value ([1]; 24 h) was 99.43% and the “Percent RV derivative remaining” value ([1]; PBS pH 8, 37 °C, 0 h) was 99.76%. For the same molecule, the “Cellular accumulation, fold improvement over telavancin” value (THP-1 cells) was 4 fold, the “Cellular accumulation, fold improvement over vancomycin” value (THP-1 cells) was 2 fold and the “Percent RV derivative remaining” value ([2]; 0 h) was 99.74%. For the same molecule, the “Percent RV derivative remaining” value ([2]; 1 h) was 99.54% and the “Percent RV derivative remaining” value ([2]; 24 h) was 98.89%.
